pIC50: −log10 of the molar value.
Legend:
[1] = molecular target: T1, 5-HT2 receptors (Rattus norvegicus, UniProt P14842); assay: Displacement of aminoiodoketaneserine at 5-HT2 receptors; format: binding; details: rat frontal cortex homogenates
T1 construct: rat frontal cortex homogenates; from tissue; host or cells: rat frontal cortex
Experimental: (§1) A-2: Study of the binding of the compounds of the invention to the serotonin reuptake site as well as to 5-HT1, 5-HT1A, 5-HT1B, 5-HT1D, 5-HT2, 5-HT2C, 5-HT4 serotoninergic receptors.
(§2) The binding of the compounds of the invention is measured in accordance with conventional methods.
for 5-HT2 receptors, by the displacement of aminoiodoketaneserine in rat frontal cortex homogenates, […]

[2] = molecular target: T2, 5-HT2C receptors (Rattus norvegicus, UniProt P08909); assay: Displacement of N-methylmesulergine at 5-HT2C receptors; format: binding; details: rat frontal cortex and hippocampus homogenates
T2 construct: rat frontal cortex and hippocampus homogenates; from tissue; host or cells: rat frontal cortex and hippocampus
T2 sequence (P08909 33-460): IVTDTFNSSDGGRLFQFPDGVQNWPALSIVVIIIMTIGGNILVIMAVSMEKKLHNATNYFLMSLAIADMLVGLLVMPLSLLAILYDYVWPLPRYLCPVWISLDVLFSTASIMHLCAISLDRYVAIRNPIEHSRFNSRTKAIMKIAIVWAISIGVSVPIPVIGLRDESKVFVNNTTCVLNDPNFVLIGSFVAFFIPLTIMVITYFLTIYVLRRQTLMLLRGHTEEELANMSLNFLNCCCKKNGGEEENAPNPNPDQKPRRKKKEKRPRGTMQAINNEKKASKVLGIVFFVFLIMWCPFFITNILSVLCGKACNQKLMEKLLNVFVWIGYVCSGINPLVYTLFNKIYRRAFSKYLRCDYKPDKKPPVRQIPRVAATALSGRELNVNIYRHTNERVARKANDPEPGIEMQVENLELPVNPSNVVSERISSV
Experimental: as §1, §2
for 5-HT2C receptors, by the displacement of N-methylmesulergine in rat frontal cortex and hippocampus homogenates, […]

[3] = molecular target: T3, 5-HT3 receptors (Rattus norvegicus, UniProt P35563); assay: Displacement of 3H-zacopride at 5-HT3 receptors; format: binding; details: 0.3-0.4 nM 3H-zacopride, rat area postrema homogenates, pH 7.4, 25° C., 30 minutes
T3 construct: rat area postrema homogenates; from tissue; host or cells: rat area postrema
T3 sequence (P35563 24-483): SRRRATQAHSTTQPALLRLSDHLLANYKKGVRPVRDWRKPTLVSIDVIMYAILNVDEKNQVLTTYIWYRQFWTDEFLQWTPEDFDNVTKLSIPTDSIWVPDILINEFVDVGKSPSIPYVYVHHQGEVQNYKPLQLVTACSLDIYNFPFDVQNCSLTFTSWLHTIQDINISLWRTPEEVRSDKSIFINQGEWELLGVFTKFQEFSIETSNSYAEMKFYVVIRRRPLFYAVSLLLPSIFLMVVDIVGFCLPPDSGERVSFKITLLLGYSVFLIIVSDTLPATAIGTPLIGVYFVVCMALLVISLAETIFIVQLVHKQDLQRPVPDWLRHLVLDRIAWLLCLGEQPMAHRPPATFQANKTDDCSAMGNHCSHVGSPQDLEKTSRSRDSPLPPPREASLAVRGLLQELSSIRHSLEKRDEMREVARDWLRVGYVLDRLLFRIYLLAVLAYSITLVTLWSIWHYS
Experimental: A-1: Study of the binding of the compounds of the invention to 5-HT3 serotoninergic receptors
The binding of the compounds of the invention to 5-HT3 receptors was determined for each compound by measuring the displacement of ^3 H-zacopride (specific ligand for 5-HT3 receptors) in rat area postrema homogenates.
Aliquot amounts (50-100 μl) of a membrane suspension (2.5-5.0 mg of protein/cm^3) are incubated for 30 minutes at 25° C. in a Tris-HCl buffer, 25 mM, pH 7,4, in the presence of 0.3-0.4 nM 3^H -zacopride (83 ci/mmol) (total volume: 0.5 cm^3). The incubation is terminated by filtering the samples through Whatman GF/B filters which are then washed and dried. The radioactivity retained on the filters is finally calculated by spectrometry in liquid medium (Aquasol). The non-specific binding is evaluated under the same conditions using samples containing in addition 1 μM of ondansetron (5-HT3 antagonist). The displacement curves obtained by adding increasing concentrations of a test compound to the incubation medium are analysed to determine the affinity of the test compounds for 5-HT3 receptors.

[4] = molecular target: 5-HT1 receptors; assay: Displacement of 5-OH tryptamine at 5-HT1 receptors; format: binding; details: pig frontal cortex and striatum
Experimental: as §1, §2
for 5-HT1 receptors, by the displacement of 5-OH tryptamine in pig frontal cortex and striatum, […]

[5] = tested on: mouse; assay: Antidepressant activity: forced swimming test on the mouse; format: in vivo; details: i.p. route, last 4 of 6 minutes
Experimental: The antidepressant effects of the compounds of the invention were studied in accordance with the forced swimming test on the mouse. (Behavioural despair in mice: a primary screening test for antidepressants, Porsolt R. D. et al, Arch. Int. Pharmacodyn., (1977), 229, pp. 327-336).
The animals are placed for 6 minutes in a cylinder containing water from which they cannot escape. The period of immobility of the animals is measured for the last 4 minutes of the test. The test compounds are administered in a single dose before the test (imipramine being used as the reference compound).

[6] = molecular target: 5-HT1D receptors; assay: Displacement of 5-OH-tryptamine at 5-HT1D receptors; format: binding; details: rat cortex, striatum and globus pallidus homogenates
Experimental: as §1, §2
for 5-HT1D receptors, by the displacement of 5-OH-tryptamine in rat cortex, striatum and globus pallidus homogenates, […]

[7] = molecular target: T4, 5-HT1A receptors (Rattus norvegicus, UniProt P19327); assay: Displacement of 8-OH-DPAT at 5-HT1A receptors; format: binding; details: rat hippocampus homogenates
T4 construct: rat hippocampus homogenates; from tissue; host or cells: rat hippocampus
T4 sequence (P19327 1-422): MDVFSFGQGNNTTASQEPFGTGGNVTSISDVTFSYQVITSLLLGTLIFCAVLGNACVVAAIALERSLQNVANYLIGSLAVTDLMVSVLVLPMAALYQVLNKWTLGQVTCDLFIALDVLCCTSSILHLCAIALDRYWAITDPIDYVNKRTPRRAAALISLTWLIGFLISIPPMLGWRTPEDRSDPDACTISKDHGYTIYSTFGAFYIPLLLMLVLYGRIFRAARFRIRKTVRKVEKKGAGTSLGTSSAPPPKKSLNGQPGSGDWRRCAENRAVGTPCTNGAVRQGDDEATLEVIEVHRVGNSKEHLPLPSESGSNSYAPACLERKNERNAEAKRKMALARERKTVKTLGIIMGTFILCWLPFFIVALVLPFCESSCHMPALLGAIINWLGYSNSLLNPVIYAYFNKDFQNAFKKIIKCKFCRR
Experimental: as §1, §2
for 5-HT1A receptors, by the displacement of 8-OH-DPAT in rat hippocampus homogenates, […]

[8] = molecular target: T5, 5-HT1B receptors (Rattus norvegicus, UniProt P28564); assay: Displacement of 5-hydroxytryptamine at 5-HT1B receptors; format: binding; details: rat cortex, striatum, and globus pallidus homogenates
T5 construct: rat cortex, striatum, and globus pallidus homogenates; from tissue; host or cells: rat cortex, striatum and globus pallidus
T5 sequence (P28564 whole entry): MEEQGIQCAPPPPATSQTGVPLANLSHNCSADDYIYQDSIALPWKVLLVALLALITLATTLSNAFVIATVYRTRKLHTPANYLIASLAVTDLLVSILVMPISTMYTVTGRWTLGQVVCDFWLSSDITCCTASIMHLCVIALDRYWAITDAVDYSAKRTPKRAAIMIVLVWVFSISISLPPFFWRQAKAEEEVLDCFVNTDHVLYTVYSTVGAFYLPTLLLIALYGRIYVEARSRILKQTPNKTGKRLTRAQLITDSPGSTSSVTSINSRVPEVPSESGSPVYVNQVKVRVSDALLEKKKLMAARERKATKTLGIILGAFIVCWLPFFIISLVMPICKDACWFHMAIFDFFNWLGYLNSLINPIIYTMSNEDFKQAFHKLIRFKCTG
Experimental: as §1, §2
for 5-HT1B receptors, by the displacement of 5-hydroxytryptamine in rat cortex, striatum, and globus pallidus homogenates, […]

[9] = molecular target: T6, serotonin reuptake site (Rattus norvegicus, UniProt P31652); assay: Displacement of 3H-paroxetine at the serotonin reuptake site; format: binding; details: rat brain without cerebellum, read-out: IC50, serotonin reuptake sites
T6 construct: rat brain from which the cerebellum has been removed; from tissue; host or cells: rat brain without cerebellum
T6 sequence (P31652 whole entry): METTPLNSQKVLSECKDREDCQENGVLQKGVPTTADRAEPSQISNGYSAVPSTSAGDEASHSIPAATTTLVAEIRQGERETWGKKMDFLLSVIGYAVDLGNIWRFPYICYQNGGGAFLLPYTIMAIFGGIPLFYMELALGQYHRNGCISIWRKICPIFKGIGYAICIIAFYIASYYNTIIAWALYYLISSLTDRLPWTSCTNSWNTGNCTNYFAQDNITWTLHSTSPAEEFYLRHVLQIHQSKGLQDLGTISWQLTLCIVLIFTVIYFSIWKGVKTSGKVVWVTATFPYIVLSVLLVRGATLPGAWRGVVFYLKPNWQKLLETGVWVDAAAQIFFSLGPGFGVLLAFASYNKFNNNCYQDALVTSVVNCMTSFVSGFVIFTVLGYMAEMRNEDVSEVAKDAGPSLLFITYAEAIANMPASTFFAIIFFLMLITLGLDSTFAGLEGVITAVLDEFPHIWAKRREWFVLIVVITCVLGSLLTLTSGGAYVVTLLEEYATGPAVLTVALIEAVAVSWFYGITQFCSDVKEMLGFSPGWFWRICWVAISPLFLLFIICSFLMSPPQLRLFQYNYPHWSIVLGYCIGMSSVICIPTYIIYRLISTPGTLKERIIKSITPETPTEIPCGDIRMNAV
Experimental: as §1, §2
for the serotonin reuptake site, by the displacement of ^3 H-paroxetinein rat brain from which the cerebellum has been removed, […]

T1 sequence (P14842 whole entry): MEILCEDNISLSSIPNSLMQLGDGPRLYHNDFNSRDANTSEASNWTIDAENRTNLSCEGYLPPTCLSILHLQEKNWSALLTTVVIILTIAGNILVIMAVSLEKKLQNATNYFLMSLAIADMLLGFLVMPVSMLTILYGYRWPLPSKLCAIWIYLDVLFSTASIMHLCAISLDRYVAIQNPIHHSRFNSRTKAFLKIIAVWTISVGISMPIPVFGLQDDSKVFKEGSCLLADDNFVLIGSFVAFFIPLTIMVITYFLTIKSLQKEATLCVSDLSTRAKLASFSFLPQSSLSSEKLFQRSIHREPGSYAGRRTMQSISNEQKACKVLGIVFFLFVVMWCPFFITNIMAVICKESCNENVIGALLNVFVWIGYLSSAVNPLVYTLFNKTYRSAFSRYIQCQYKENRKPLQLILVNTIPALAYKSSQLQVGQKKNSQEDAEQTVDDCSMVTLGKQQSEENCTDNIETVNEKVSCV

Row | Compound | pIC50 [1] | pIC50 [2] | pIC50 [3] | pIC50 [4] | Period of immobility expressed as a percentage by comparison with the control group ([5]; 32 mg/kg, **p < 0.01) | Period of immobility expressed as a percentage by comparison with the control group ([5]; 64 mg/kg, ***p < 0.001) | pIC50 [6] | pIC50 [7] | pIC50 [8] | pIC50 [9]
1 | Cc1csc2c1-n1cccc1/C2=N/OCCN(C)C [Example 3, (Z)-8-{[2-(N,N-Dimethylamino)ethoxy]imino}-3-methylthieno[2,3-d]pyrrolo-[1,2-a]pyrrole] | 5.51 | 5.68 | 9.96 | 5.66 | -39% | -86% | 6.32 | 5.24 | 5.57 | 6.92
2 | Cc1csc2c1-n1cccc1/C2=N/OCCNCc1ccccc1 [Example 41, (Z)-3-Methyl-8-{[2-(N-benzylamino)ethoxy]imino}thieno[2,3-d]pyrrolo[1,2-a]-pyrrole] | 5.39 | 6.38 |  | 5.57 |  |  | 4.96 | 5.04 | 5.36 | 6.96
3 | Cc1csc2c1-n1cccc1/C2=N/OCCCN(C)C [Example 14] | 4.38 | 4.74 |  | 4.96 |  |  | 5.15 | 4.66 | 4.49 | 5.96
4 | Cc1csc2c1-n1cccc1C2=NOCCN1CCCC1 [Example 17] | 5.43 | 6.15 | 8.70 | 5.52 |  |  | 5.49 | 5.80 | 5.44 | 6.52
5 | CC(CON=C1c2ccccc2-n2cccc21)N(C)C (stereo not drawn) [Example 55] | 4.92 | 5.39 | 8.28 | 5.55 |  |  | 5.85 | 5.42 | 5.36 | 6.49
6 | Cc1csc2c1-n1cccc1C2=NOCCN1CCCCC1 [Example 18] | 5.28 | 5.92 | 8.40 | 5.29 |  |  | 5.12 | 5.24 | 4.85 | 6.59
7 | Cc1ccc2c(c1)C(=NOCC(C)N(C)C)c1cccn1-2 (stereo not drawn) [Example 52] | 5.08 | 5.64 | 7.36 | 5.70 |  |  | 6.09 | 5.48 | 5.42 | 4.89
8 | Cc1csc2c1-n1cccc1/C2=N/OCCN [Example 40, (Z)-3-Methyl-8-[(2-amino-ethoxy)imino]thieno[2,3-d]pyrrolo[1,2-a]pyrrole] | 4.82 | 6.74 |  | 6.05 |  |  | 5.57 | 5.51 | 6.04 | 6.24
9 | Cc1csc2c1-n1cccc1C2=NOC(CCN(C)C)c1ccccc1 (stereo not drawn) [Example 39, 3-Methyl-8-{[3-(N,N-dimethylamino)-1-phenylprop-1-yloxy]imino}thieno-[2,3-d]pyrrolo[1,2-a]pyrrole] | 5.66 | 7.21 | 6.70 | 5.00 | -53% |  | 5.17 | 4.96 | < 4.00 | 7.14
10 | CN(C)CCON=C1c2ccccc2-n2cccc21 [Example 54] | 4.85 | 5.85 |  | 6.85 |  |  | 6.16 | 5.96 | 5.96 | 6.03
11 | CCN(CC)CCON=C1c2scc(C)c2-n2cccc21 [Example 15] | 4.89 | 6.08 | 8.30 | 4.96 |  |  | 5.40 | 4.68 | 5.19 | 6.89
12 | CN(C)CCON=C1c2cc(Cl)ccc2-n2cccc21 [Example 49, 7-Chloro-9-{[2-(N,N-dimethylamino)ethoxy]imino}pyrrolo[1,2-a]indole] | 5.12 | 4.96 | 7.07 | 5.62 |  |  | 5.51 | 4.68 | 5.85 | 4.92
13 | CN(C)CCON=C1c2sccc2-n2cccc21 [Example 4] | 5.30 | 6.09 |  | 6.26 |  |  | 6.39 | 6.32 | 6.21 | 6.05
14 | Cc1ccc2c(c1)C(=NOCCC1CCCN1C)c1cccn1-2 (stereo not drawn) [Example 53] | 4.66 | 5.22 | 7.43 | 5.08 |  |  | 5.26 | 4.85 | 4.46 | 4.62
15 | CN1CCCC1CON=C1c2sccc2-n2cccc21 (racemic) [Example 13] | 4.85 | 6.00 | 8.70 | 4.80 |  |  | 4.96 | < 4.00 | 4.51 | 6.22
16 | Cc1csc2c1-n1cccc1/C2=N/OCC(C)CN(C)C (stereo not drawn) [Example 23] | 4.85 | 5.70 | 8.27 | 5.02 |  |  | 4.96 | 4.28 | 4.62 | 5.30
